Experimental data published in ChEMBL document CHEMBL1201862, “PubChem BioAssay data set” (2004).
Where “and” joins values, the source holds several entries; their conditions need not be identical. Equal values may be shown once. Calls of active or inactive are those of the source. For most assays here, no stated cut-off is given here; in the data, actives have a measured EC50 and inactives only a lower limit.

Experiments:
Streptococcus = experiment: GAS UMAA2166 growth inhibition – luminescence, BacTiterGlo, counter-screen for streptokinase expression inhibitor project, dose response (AID 1915); type: functional, organism-based;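 further: potency for reduction of bacterial viability or growth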
Streptokinase A = target: T1, Streptokinase A (Streptococcus pyogenes serotype M1, UniProt P10520); experiment: viability-normalized secreted streptokinase activity reduction – plasminogen activation absorbance, OD405, dose response (AID 1914); type: functional, Streptococcus pyogenes M1 GAS;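 further: secreted streptokinase activity via plasminogen activation per viability signal from cell pellet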
T1 sequence (P10520 whole entry): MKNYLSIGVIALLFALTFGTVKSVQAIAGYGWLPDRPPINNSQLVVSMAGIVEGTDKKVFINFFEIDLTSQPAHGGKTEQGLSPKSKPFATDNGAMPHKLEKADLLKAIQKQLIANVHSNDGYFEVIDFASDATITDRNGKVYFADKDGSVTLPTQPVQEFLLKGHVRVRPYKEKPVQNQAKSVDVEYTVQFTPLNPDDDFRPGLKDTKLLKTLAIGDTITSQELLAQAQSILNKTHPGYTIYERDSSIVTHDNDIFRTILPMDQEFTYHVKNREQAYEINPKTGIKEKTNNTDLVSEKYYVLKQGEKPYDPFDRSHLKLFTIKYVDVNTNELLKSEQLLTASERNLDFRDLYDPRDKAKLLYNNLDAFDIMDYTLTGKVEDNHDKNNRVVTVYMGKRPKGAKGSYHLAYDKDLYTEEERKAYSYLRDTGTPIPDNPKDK

[1] = tested on: Streptococcus sp. 'group A'; experiment: Streptococcus pyogenes SK(-)GAS viability under kanamycin – luminescence, BacTiterGlo, confirmation, counter-screen for streptokinase expression inhibitor project, dose response (AID 1900); type: functional, organism-based
[2] = target: T2, Heat shock factor protein 1 (Mus musculus, UniProt P38532); experiment: decrease of HSF1-responsive luciferase luminescence – cell-based, NIH3T3, dose retest, confirmation (AID 2382); type: functional;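 further: NIH3T3 fibroblasts with HSF1-driven luciferase reporter stressed by proteasome inhibitor MG132; luminescence from HSF1-driven luciferase expression after 8 hours of MG132 stress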
T2 sequence (P38532 whole entry): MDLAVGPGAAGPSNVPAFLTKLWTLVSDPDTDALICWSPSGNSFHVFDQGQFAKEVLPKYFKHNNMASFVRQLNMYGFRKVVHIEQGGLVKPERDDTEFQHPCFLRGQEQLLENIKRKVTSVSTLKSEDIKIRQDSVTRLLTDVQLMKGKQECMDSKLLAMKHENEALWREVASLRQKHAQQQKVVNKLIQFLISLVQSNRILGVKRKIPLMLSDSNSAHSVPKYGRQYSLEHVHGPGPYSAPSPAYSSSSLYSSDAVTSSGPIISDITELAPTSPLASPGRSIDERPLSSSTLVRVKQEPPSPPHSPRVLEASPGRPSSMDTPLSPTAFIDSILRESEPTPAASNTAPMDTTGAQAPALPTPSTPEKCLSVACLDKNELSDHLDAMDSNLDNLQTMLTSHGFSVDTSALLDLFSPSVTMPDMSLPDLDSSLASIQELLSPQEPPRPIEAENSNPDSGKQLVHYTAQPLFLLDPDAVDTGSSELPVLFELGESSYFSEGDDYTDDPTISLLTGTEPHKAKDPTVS

[3] = Trypanosoma cruzi growth suppression in host cells – NIH3T3 host cells, beta-gal luminescence, confirmation (AID 2044); type: functional, cell-based;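 further: intracellular parasites grown in NIH/3T3 mouse fibroblasts as host cells; luminescent beta-galactosidase reporter signal from transgenic T. cruzi replicating inside host cells; inhibitors lower the luminescence signal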
[4] = NIH3T3 cell viability loss – ATP luminescence, mouse fibroblasts, counter-screen, dose response (AID 2010); type: functional, cell-based;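 further: cells exposed to compound for about 90 hours before reading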
Cytochrome P450 3A4 = Cytochrome P450 3A4 (Homo sapiens, UniProt P08684);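 further: CYP3A4 tested as one member of a cytochrome P450 panel screen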
[5] = viability of uninfected HEp-2 cells – cell-based, HTS, cytotoxicity control for RSV inhibitor project, dose response (AID 2410); type: functional; settings: human respiratory syncytial virus
INS1 = experiment: INS-1E survival protection against cytokine death – cell-based, luminescence, retest, dose response (AID 449756); type: functional; settings: Rattus norvegicus;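 further: cell death triggered by IL-1 beta plus TNF-alpha plus IFN-gamma mixture; protective hits raise ATP signal compared with cytokine alone wells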

Chain of Cytochrome P450 3A4 (P08684 whole entry): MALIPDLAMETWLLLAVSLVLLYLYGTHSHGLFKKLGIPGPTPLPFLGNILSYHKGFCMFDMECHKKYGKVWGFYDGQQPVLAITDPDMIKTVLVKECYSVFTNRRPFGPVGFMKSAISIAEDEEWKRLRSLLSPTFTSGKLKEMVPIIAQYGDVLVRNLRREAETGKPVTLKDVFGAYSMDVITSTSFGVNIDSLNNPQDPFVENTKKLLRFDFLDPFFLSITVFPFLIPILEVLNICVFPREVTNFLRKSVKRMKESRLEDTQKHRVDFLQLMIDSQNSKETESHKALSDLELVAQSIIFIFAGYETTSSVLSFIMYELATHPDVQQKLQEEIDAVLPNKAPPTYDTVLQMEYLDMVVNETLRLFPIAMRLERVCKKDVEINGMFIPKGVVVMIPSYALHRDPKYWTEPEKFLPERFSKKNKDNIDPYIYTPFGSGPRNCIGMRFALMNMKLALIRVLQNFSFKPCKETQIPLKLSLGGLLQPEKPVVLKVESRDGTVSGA

CCc1c(C)nc2cc(-c3ccc(OC)c(OC)c3)nn2c1N1CCC(C)CC1
EC50 (Streptococcus): 14.7 µM (active) | EC50 (Streptokinase A): 16.6 µM (active) | EC50 [1]: 5.05 µM (active)

NC(=O)c1ccsc1NC(=O)C1CCCCC1
EC50 [2]: > 195 µM (not active)

COc1ccc(N2C(=O)CC(c3ccc(OC(C)C)cc3)C2=O)cc1 (stereo unspecified)
EC50 [2]: > 195 µM (not active)

CCN(CC)P(=O)(Nc1ccc(C)cc1Br)c1ccc(N(C)C)cc1NC(=O)c1ccco1 (stereo unspecified)
EC50 [3]: 2.27 µM (active) | EC50 [4]: > 60 µM (inconclusive)

Cc1ccc(C)c(CN2CCCN(Cc3cc(C)ccc3C)S2(=O)=O)c1
EC50 (Streptococcus): > 150 µM (not active) | EC50 (Streptokinase A): 19.7 µM (active) | EC50 [1]: 19.8 µM (active)

Oc1nc2ccccc2n2cnnc12
EC50 [2]: > 195 µM (not active)

Cc1ccc(-n2c(O)cnc2Nc2nc(C)cc(C)n2)cc1
AC50 (Cytochrome P450 3A4): 31.6 µM (inconclusive)

O=C(CN(C(=O)Cn1nnc(-c2ccccc2F)n1)c1cccc2c1CCCC2)NCc1ccccc1
EC50 (Streptococcus): > 150 µM (not active) | EC50 (Streptokinase A): > 150 µM (not active) | EC50 [1]: 11.2 µM (active)

COc1ccc2[nH]cc(CCNc3ncnc4ccc(-c5ccccc5OC)cc34)c2c1
AC50 (Cytochrome P450 3A4): 0.794 µM (inconclusive)

C/C(=N\OC(=O)NC(C)C)c1sc(-c2ccc(Cl)cc2)nc1C
AC50 (Cytochrome P450 3A4): 31.6 µM (inconclusive)

CN1CCN(C(=O)CCN2C(=O)/C(=C/c3cccc(Br)c3)SC2=S)CC1
CC50 [5]: 18.8 µM (active)

C[C@@H](c1ccccc1)N1C(=O)[C@H]2[C@H]3[C@H](O)[C@H](O)C/C(=N/OCc4ccccc4)[C@H]3CC[C@@H]2C1=O
AC50 (Cytochrome P450 3A4): 3.16 µM (inconclusive)

COc1ccc(OC)c(C2/C(=C(\O)c3ccccc3)C(C)=Nc3nc4ccccc4n32)c1 (stereo unspecified)
EC50 [3]: 1.51 µM (active) | EC50 [4]: > 60 µM (not active)

COc1cc2c(-c3ccccc3)c(C)oc2cc1/C=N/NC(N)=S
EC50 [3]: 0.102 µM (active) | EC50 [4]: > 60 µM (not active)

O=C(c1cc2ccccc2o1)N(Cc1nnc(-c2ccccc2Cl)o1)C1CC1
CC50 [5]: 25.9 µM (active)

CSc1nc(SCC(=O)NC(c2ccccc2)c2ccccc2)c2c3c(sc2n1)CN(C)CC3
EC50 [3]: 0.237 µM (active) | EC50 [4]: > 60 µM (not active)

O=c1[nH]c(NCCCO)nc2c1C1(CCCC1)Cc1ccccc1-2
AC50 (INS1): > 260 µM (inactive)

NC(=O)COC(=O)c1ccccc1Oc1ccccc1
EC50 [2]: > 195 µM (not active)

CCOC(=O)N1CCN(CC(O)COCCC23CC4CC(CC(C4)C2)C3)CC1 (stereo unspecified)
EC50 [3]: 1.16 µM (active) | EC50 [4]: > 30 µM (not active)

Cc1cc(C)n(C(=O)CNC(=O)Cc2ccccc2)n1
EC50 [2]: > 195 µM (not active)

COCC(=O)N1CCC[C@@]2(CCN(Cc3ccccc3)C2)C1
AC50 (Cytochrome P450 3A4): 25.1 µM (inconclusive)

O=C(CCc1nnc2ccc(N3CCC4(CC3)OCCO4)nn12)NCc1ccc(F)cc1
EC50 [2]: > 195 µM (not active)

CCC(C)C(NC(=O)C1CCC(=O)N1C(=O)OCc1ccccc1)C(=O)NC(C(=O)N1CCCC1C(N)=O)C(C)CC (stereo unspecified)
EC50 [2]: > 195 µM (not active)

CCNC(=O)NC(=O)c1csc([N+](=O)[O-])c1
EC50 [3]: 0.415 µM (active) | EC50 [4]: > 30 µM (not active)

C=CCn1c(SCN2C(=O)c3ccccc3C2=O)nc2ccc(Cl)cc2c1=O
AC50 (INS1): 7.25 µM (active)

CC(C)CN(C(=O)COC(=O)c1ccc([N+](=O)[O-])s1)c1c(N)n(Cc2ccccc2)c(=O)[nH]c1=O
EC50 [3]: 1.06 µM (active) | EC50 [4]: 4.8 µM (active)

O=C(c1ccc(Cl)cc1Cl)C1(n2cncn2)Oc2ccccc2C1O (stereo unspecified)
EC50 [3]: 0.535 µM (active) | EC50 [4]: 18 µM (active)

C=CCOc1ccccc1CN1CCCC(CCC(=O)N(C)CCc2ccccn2)C1 (stereo unspecified)
EC50 [3]: 0.412 µM (active) | EC50 [4]: > 60 µM (not active)

CCOC(=O)CSc1ccc(C(=O)NCCCN2CCOCC2)cc1[N+](=O)[O-]
EC50 [2]: > 195 µM (not active)

Cc1cc(/C=N/N2CCN(C)CC2)c(C)n1-c1ccccc1F
EC50 [3]: 1.81 µM (active) | EC50 [4]: > 60 µM (not active)

O=C(CN1CC=C(c2ccccc2)CC1)NC(=O)NCc1ccccc1
EC50 [2]: > 195 µM (not active)

O=C(c1cc(-c2ccc(Br)cc2)nc2ccccc12)N1CCN(c2ccccc2O)CC1
EC50 (Streptococcus): 25.4 µM (inconclusive) | EC50 (Streptokinase A): 29.2 µM (active) | EC50 [1]: 7.53 µM (active)

COc1ccc(C(=O)N(C)c2ccccc2C(=O)NCCc2ccccc2)cc1
AC50 (INS1): 4.32 µM (active)

C/C(=N/NC(=S)Nc1cccc(C)c1)c1cccc([N+](=O)[O-])c1
EC50 [3]: 1.63 µM (active) | EC50 [4]: > 60 µM (not active)

O=C(O)CC1SC(=O)N(Cc2ccccc2)C1=O (stereo unspecified)
EC50 [2]: > 195 µM (not active)

O=C(c1ccco1)N(Cc1cc2ccccc2nc1O)C1CCCCC1
EC50 [2]: > 195 µM (not active)

CN1/C(=C\C(=O)Nc2ccc(Cl)cc2)C(C)(C)c2ccccc21
EC50 (Streptococcus): 11.5 µM (active) | EC50 (Streptokinase A): > 150 µM (not active) | EC50 [1]: 9.32 µM (active)

COc1ccccc1OCC(=O)Nc1c2c(nn1-c1ccc(F)cc1)CS(=O)(=O)C2
EC50 (Streptococcus): > 150 µM (not active) | EC50 (Streptokinase A): > 150 µM (not active) | EC50 [1]: > 150 µM (not active)

Cc1ccc([C@@H](O)c2cnc(C)n2Cc2ccccc2)cc1
AC50 (Cytochrome P450 3A4): 5.01 µM (inconclusive)

CO[C@H]1COC(=O)C/C=C\[C@@H](C)COC(=O)[C@@H](CCSC)NC(=O)C/C=C\[C@@H]1C
AC50 (Cytochrome P450 3A4): 3.98 µM (inconclusive) and 5.01 µM (inconclusive)

O=C(c1cnccn1)N1CCC[C@@]2(CCN(c3ncccn3)C2)C1
AC50 (Cytochrome P450 3A4): 15.8 µM (inconclusive)

Cc1c(-c2ccccc2)[n+]([O-])c2c([n+]1[O-])CCC2
EC50 [2]: > 195 µM (not active)

CC(Sc1nnnn1C)C(=O)Nc1ccc(Oc2ccccc2)cc1 (stereo unspecified)
EC50 [2]: > 195 µM (not active)

CCCCn1c(SCC(=O)NCc2ccco2)nc2c(sc3ccccc32)c1=O
EC50 [2]: > 195 µM (not active)

NC=C1C(=O)N(c2ccccc2)C(=O)N(c2ccccc2)C1=O
EC50 [2]: > 195 µM (not active)

Cc1ccc(S(=O)(=O)N(C)c2ccccc2C(=O)NC2CCCC2)cc1
EC50 [2]: > 195 µM (not active)

CCCCc1ccc(NC(S)=NCc2cccs2)cc1
EC50 [3]: 2.6 µM (active) | EC50 [4]: > 60 µM (not active)

CCN(CC)CCOCCOc1cc(C)c(Cl)c(C)c1
EC50 [3]: 0.408 µM (active) | EC50 [4]: 9.47 µM (active)

COc1ccc(S(=O)(=O)NCC(c2cccnc2)N2CCN(C)CC2)cc1OC (stereo unspecified)
EC50 [2]: > 195 µM (not active)

CCc1nc(SCC(=O)NCCc2ccc(OC)c(OC)c2)c2c(=O)n(C)c(=O)n(C)c2n1
EC50 [2]: > 195 µM (not active)

c1ccc(/C(=N/Nc2nc3ccccc3s2)c2ccccn2)cc1
AC50 (Cytochrome P450 3A4): 3.98 µM (inconclusive)

COc1ccccc1C(=O)NCCC(=O)NNC(=O)Cn1ccc(C(F)(F)F)n1
EC50 [2]: > 195 µM (not active)

CCCC(=O)NC(N=C(S)Nc1ccc(N=Nc2ccccc2)cc1)C(Cl)(Cl)Cl (stereo unspecified)
AC50 (INS1): 5.34 µM (active)

CN(C)c1ccc(-c2nc(N3CCNCC3)c3ccccc3n2)cc1
AC50 (Cytochrome P450 3A4): 31.6 µM (inconclusive)

Cc1c(C(=O)NCc2ccc3c(c2)OCO3)sc2nc(-c3ccccc3)cn12
EC50 [2]: > 195 µM (not active)

CC1CC(c2ccccc2)n2nc(NC(=O)c3cccs3)nc2N1 (stereo unspecified)
EC50 [2]: > 195 µM (not active)

Cc1cc(C)cc(N(C(=O)Cc2cccs2)C(C(=O)NC2CCCCC2)c2ccccn2)c1 (stereo unspecified)
AC50 (Cytochrome P450 3A4): 0.891 µM (inconclusive)

CC1(C(=O)OCC(=O)Nc2nc(-c3ccc(F)c(F)c3)cs2)CC1(Cl)Cl (stereo unspecified)
EC50 (Streptococcus): 11.8 µM (active) | EC50 (Streptokinase A): 7.2 µM (active) | EC50 [1]: 8.61 µM (active)

CCOP(=O)(OCC)c1nc(-c2cccc3ccccc23)oc1NCc1ccc(OC)cc1
EC50 [3]: 2.45 µM (active) | EC50 [4]: > 60 µM (not active)

N=C(NOC(=O)c1cccc(Cn2cc(C(F)(F)F)ccc2=O)c1)c1ccc(Cl)cc1
AC50 (INS1): 12.4 µM (active)

Cc1ccc(NC(=O)CCN2CCCCC2)cc1
EC50 [2]: 4.53 µM (active)

Cn1c(=O)c2nc(CCCc3ccc([N+](=O)[O-])cc3)[nH]c2n(C)c1=O
AC50 (Cytochrome P450 3A4): 3.98 µM (inconclusive)

CCOc1cc(C(=O)NCc2ccccc2)ccc1OCC(=O)N1CCOCC1
EC50 [2]: > 195 µM (not active)
